Results taken from ChEMBL document CHEMBL1137930, “Critical structural motif for the catalytic inhibition of human topoisomerase II by UK-1 and analogs” (Bioorg Med Chem Lett, 2004).

What was measured:
[1] = target: T1, DNA topoisomerase 2-alpha (Homo sapiens, UniProt P11388); test: Inhibitory activity of compound against human DNA topoisomerase II, alpha was evaluated by ability to interfere with the relaxation of supercoiled plasmid DNA
[2] = target: T1, DNA topoisomerase 2-alpha; test: Inhibitory concentration against human DNA topoisomerase II, alpha mediated relaxation of pBR322
HL-60 = test: Cytotoxicity of compound against HL60 cell line; assay type: functional, cell-based; details: Homo sapiens
PC-3 = test: Cytotoxicity of compound against PC-3 cell line; assay type: functional, cell-based; details: Homo sapiens
P388 = test: Inhibitory activity of compound against P388 murine cell line; range is 0.3 uM-1.6 uM; assay type: functional, cell-based; details: Mus musculus
[3] = target: T1, DNA topoisomerase 2-alpha; test: Inhibitory concentration against human DNA topoisomerase II, alpha mediated relaxation of pBR322; no measurable activity

T1 sequence (P11388 whole entry): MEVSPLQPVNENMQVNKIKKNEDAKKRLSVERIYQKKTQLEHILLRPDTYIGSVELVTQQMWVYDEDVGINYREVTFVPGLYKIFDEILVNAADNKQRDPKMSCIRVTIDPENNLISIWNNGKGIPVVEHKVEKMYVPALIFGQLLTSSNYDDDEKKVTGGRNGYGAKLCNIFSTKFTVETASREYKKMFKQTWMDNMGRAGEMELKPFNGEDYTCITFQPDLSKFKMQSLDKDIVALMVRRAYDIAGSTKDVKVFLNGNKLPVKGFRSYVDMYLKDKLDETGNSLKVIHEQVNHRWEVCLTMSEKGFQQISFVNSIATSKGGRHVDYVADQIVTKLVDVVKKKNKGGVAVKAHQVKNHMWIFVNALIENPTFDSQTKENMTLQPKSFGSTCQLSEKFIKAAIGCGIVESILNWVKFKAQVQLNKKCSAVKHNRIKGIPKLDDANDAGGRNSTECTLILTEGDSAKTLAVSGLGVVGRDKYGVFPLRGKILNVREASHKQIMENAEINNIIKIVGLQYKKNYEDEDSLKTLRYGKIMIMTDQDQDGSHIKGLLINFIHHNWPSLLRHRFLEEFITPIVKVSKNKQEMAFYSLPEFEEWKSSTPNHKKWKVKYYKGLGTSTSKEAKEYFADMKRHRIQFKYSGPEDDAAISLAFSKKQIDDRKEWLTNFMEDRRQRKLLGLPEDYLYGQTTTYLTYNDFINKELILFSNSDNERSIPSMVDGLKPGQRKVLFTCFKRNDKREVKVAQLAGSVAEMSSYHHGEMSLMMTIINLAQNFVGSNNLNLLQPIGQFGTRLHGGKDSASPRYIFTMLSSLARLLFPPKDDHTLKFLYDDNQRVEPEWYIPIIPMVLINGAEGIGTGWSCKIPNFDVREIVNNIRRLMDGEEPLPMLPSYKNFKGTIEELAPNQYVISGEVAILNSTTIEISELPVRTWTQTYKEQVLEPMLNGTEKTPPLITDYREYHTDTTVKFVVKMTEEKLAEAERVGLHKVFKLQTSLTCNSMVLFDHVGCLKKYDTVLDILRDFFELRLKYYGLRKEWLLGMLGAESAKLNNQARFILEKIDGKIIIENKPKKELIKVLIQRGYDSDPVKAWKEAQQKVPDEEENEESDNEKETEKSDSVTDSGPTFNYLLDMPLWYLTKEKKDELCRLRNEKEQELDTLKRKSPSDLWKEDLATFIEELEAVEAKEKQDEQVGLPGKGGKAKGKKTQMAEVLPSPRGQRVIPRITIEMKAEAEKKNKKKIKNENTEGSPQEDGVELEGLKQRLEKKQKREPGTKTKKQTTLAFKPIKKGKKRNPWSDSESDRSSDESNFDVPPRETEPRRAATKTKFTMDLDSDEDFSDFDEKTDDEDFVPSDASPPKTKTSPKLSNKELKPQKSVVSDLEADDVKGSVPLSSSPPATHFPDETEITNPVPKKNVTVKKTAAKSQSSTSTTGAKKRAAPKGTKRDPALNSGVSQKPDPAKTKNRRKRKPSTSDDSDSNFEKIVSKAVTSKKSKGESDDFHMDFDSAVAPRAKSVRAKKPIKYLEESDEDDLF

Oc1ccccc1-c1nc2c(-c3nc4ccccc4o3)cccc2o1
IC50 [1]: 20 µM | IC50 [2]: 20 µM

COC(=O)c1cccc2oc(-c3cccc4oc(-c5ccccc5O)nc34)nc12
IC50 [1]: 32 µM | IC50 [2]: 50 µM | IC50 (HL-60): 0.32 µM | IC50 (PC-3): 0.4 µM | IC50 (P388): 0.3 µM

COC(=O)c1cccc2oc(-c3cccc4oc(-c5ccccc5)nc34)nc12
IC50 [2]: 38 µM

c1ccc(-c2nc3c(-c4nc5ccccc5o4)cccc3o2)cc1
IC50 [3]: > 100 µM
